From the supplement of paper PMC5908809

Columns and labels:
[1] = system: normal NK cells expanded with K562-aAPC; experiment: percent inhibition of viability; higher = more inhibition; conditions: 72 h, IL-2 2.5 ng/mL
Experimental: (§1)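 Drug sensitivity and resistance testing on K562-aAPC-expanded normal NK cells: 5 concentrations (10-fold steps over a 10,000-fold range), 72 h at 37 °C, viability by CellTiter-Glo normalised to DMSO and benzethonium chloride controls; DSS from the fitted curve.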

DERL-7 (IL-2 2.5 ng/mL) [2] = experiment: as above; conditions: 72 h
IMC-1 (IL-2 20 ng/mL) [3] = experiment: as above; conditions: 72 h
KAI3 (IL-2 2.5 ng/mL) [4] = experiment: as above; conditions: 72 h
KHYG-1 (IL-2 2.5 ng/mL) [5] = experiment: as above; conditions: 72 h
NK-92 (IL-2 2.5 ng/mL) [6] = experiment: as above; conditions: 72 h
NK-YS (IL-2 2.5 ng/mL) [7] = experiment: as above; conditions: 72 h
NKL (IL-2 2.5 ng/mL) [8] = experiment: as above; conditions: 72 h
SNK-6 (IL-2 2.5 ng/mL) [9] = experiment: as above; conditions: 72 h
YT (IL-2 2.5 ng/mL) [10] = experiment: as above; conditions: 72 h
[11] = system: normal primary NK cells, pool 1 (3 donors) (IL-2 2.5 ng/mL); experiment: as above; conditions: 72 h
[12] = system: normal primary NK cells, pool 1 (3 donors), resting (IL-2 0 ng/mL); experiment: as above; conditions: 72 h
[13] = system: normal primary NK cells, pool 2 (3 donors) (IL-2 2.5 ng/mL); experiment: as above; conditions: 72 h
[14] = system: normal primary NK cells, pool 3 (3 donors) (IL-2 2.5 ng/mL); experiment: as above; conditions: 72 h
[15] = system: normal NK cells expanded with K562-aAPC; experiment: drug sensitivity score (DSS) (DSS units); higher = more sensitive; extreme values may be limits of the assay; conditions: 72 h; IL-2 2.5 ng/mL
Experimental: as §1

DERL-7 (IL-2 2.5 ng/mL) [16] = experiment: as above; conditions: 72 h
IMC-1 (IL-2 20 ng/mL) [17] = experiment: as above; conditions: 72 h
KAI3 (IL-2 2.5 ng/mL) [18] = experiment: as above; conditions: 72 h
KHYG-1 (IL-2 2.5 ng/mL) [19] = experiment: as above; conditions: 72 h
NK-92 (IL-2 2.5 ng/mL) [20] = experiment: as above; conditions: 72 h
NK-YS (IL-2 2.5 ng/mL) [21] = experiment: as above; conditions: 72 h
NKL (IL-2 2.5 ng/mL) [22] = experiment: as above; conditions: 72 h
SNK-6 (IL-2 2.5 ng/mL) [23] = experiment: as above; conditions: 72 h
YT (IL-2 2.5 ng/mL) [24] = experiment: as above; conditions: 72 h
[25] = system: normal primary NK cells, pool 1 (3 donors) (IL-2 2.5 ng/mL); experiment: as above; conditions: 72 h
[26] = system: normal primary NK cells, pool 1 (3 donors), resting (IL-2 0 ng/mL); experiment: as above; conditions: 72 h
[27] = system: normal primary NK cells, pool 2 (3 donors) (IL-2 2.5 ng/mL); experiment: as above; conditions: 72 h
[28] = system: normal primary NK cells, pool 3 (3 donors) (IL-2 2.5 ng/mL); experiment: as above; conditions: 72 h

O=P1(NCCCl)OCCCN1CCCl (stereo not drawn) [Ifosfamide] (max concentration tested 10000 nM)
percent inhibition of viability [%]
Conditions	1 nM	10 nM	100 nM	1000 nM	10000 nM
DERL-7 (IL-2 2.5 ng/mL) [2]	-5.51	-7.54	-1.33	-3.22	-6.83
IMC-1 (IL-2 20 ng/mL) [3]	-7.45	-2.99	-8.91	-4.46	-9.5
KAI3 (IL-2 2.5 ng/mL) [4]	-7.61	-11.2	-10.2	-6.62	-0.66
KHYG-1 (IL-2 2.5 ng/mL) [5]	-2.87	-4.29	-7.54	-5.28	-6.85
NK-92 (IL-2 2.5 ng/mL) [6]	-16.3	-6.46	-7.42	-21.1	-17.7
NK-YS (IL-2 2.5 ng/mL) [7]	-1.93	-4.42	-4.13	1.8	-4.59
NKL (IL-2 2.5 ng/mL) [8]	-15.9	-21.4	-20.8	-20.4	-25.2
SNK-6 (IL-2 2.5 ng/mL) [9]	9.44	6.95	-7.05	-1.13	-14.1
YT (IL-2 2.5 ng/mL) [10]	-4.47	-6.22	-6.55	-4.33	-5.88
[1]	-2.46	-7.15	-2.89	-5.04	-1.58
[11]	-11.2	-7.35	-2.79	-2.71	1.61
[12]	-18.3	-6.52	1.44	-5.18	12.7
[13]	-7.91	-9.22	-9.46	-8.83	-4.62
[14]	-13.4	-7.36	-10.1	-8.46	-1.46

Conditions	drug sensitivity score
DERL-7 (IL-2 2.5 ng/mL) [16]	0
IMC-1 (IL-2 20 ng/mL) [17]	0
KAI3 (IL-2 2.5 ng/mL) [18]	0
KHYG-1 (IL-2 2.5 ng/mL) [19]	0
NK-92 (IL-2 2.5 ng/mL) [20]	0
NK-YS (IL-2 2.5 ng/mL) [21]	0
NKL (IL-2 2.5 ng/mL) [22]	0
SNK-6 (IL-2 2.5 ng/mL) [23]	0
YT (IL-2 2.5 ng/mL) [24]	0
[15]	0
[25]	0
[26]	0.02
[27]	0
[28]	0

CC(C)Cn1cnc2c(N)nc3ccccc3c21 [Imiquimod] (max concentration tested 2500 nM)
percent inhibition of viability [%]
Conditions	0.25 nM	2.5 nM	25 nM	250 nM	2500 nM
DERL-7 (IL-2 2.5 ng/mL) [2]	-5	4.44	-3.41	4.83	-1.82
IMC-1 (IL-2 20 ng/mL) [3]	2.11	-3.32	4.26	10.8	22.2
KAI3 (IL-2 2.5 ng/mL) [4]	-2.07	-8.41	6.25	5.37	17.9
KHYG-1 (IL-2 2.5 ng/mL) [5]	-3	-3.08	2.45	6.32	13.8
NK-92 (IL-2 2.5 ng/mL) [6]	-7.9	-11.3	-5.41	5.55	12.3
NK-YS (IL-2 2.5 ng/mL) [7]	-0.76	-2.23	5.71	6	16.1
NKL (IL-2 2.5 ng/mL) [8]	-2.54	-14.7	-1.93	3.67	1.08
SNK-6 (IL-2 2.5 ng/mL) [9]	10.3	-13.6	12.2	44	57.8
YT (IL-2 2.5 ng/mL) [10]	-4.4	-3	5.75	3.31	4.52
[1]	-2.97	-4.12	-1.05	14.8	11.3
[11]	-14.4	5.91	-7.15	-9.14	5.82
[12]	-4.66	7.46	-14.7	-14.5	-19.1
[13]	-8	-6.73	-8.32	-4.68	20.8
[14]	-14.7	-9.92	-6.17	-5.82	6.93

Conditions	drug sensitivity score
DERL-7 (IL-2 2.5 ng/mL) [16]	0
IMC-1 (IL-2 20 ng/mL) [17]	1.48
KAI3 (IL-2 2.5 ng/mL) [18]	0.57
KHYG-1 (IL-2 2.5 ng/mL) [19]	0.26
NK-92 (IL-2 2.5 ng/mL) [20]	0.3
NK-YS (IL-2 2.5 ng/mL) [21]	0.38
NKL (IL-2 2.5 ng/mL) [22]	0
SNK-6 (IL-2 2.5 ng/mL) [23]	9.47
YT (IL-2 2.5 ng/mL) [24]	0
[15]	1.27
[25]	0
[26]	0
[27]	0.45
[28]	0
